Results published in patent US7488811B2, “Macrolide compounds endowed with antiinflammatory activity” (Zambon Group S.p.A., priority 2002, dated 2009).

Assays:
[1] = test system: PMA-induced oedema in mouse ear; test: Acute contact dermatitis: TPA (PMA)-induced ear oedema in mice; type: in vivo; conditions: CD1 mice, 500 μg/ear topical in TPDS 30 min before TPA 0.01%, 6 h
Procedure: Groups of 5-6 CD1 mice (18-24 g) were used. • Administration of the compounds
All the macrolide compounds were dissolved in Trans-phase Delivery System (TPDS), a vehicle formed by 10% benzyl alcohol, 40% acetone and 50% isopropanol.
15 microlitres of the compounds (500 μg), dissolved in TPDS, were applied topically to the inner surface of an ear; 30 minutes later, 12 microlitres of a solution of tetradecanoylphorbol acetate (TPA) at a concentration of 0.01% dissolved in acetone were applied to the same area.
Six hours later, the animals were sacrificed by inhalation of CO2. • Evaluation of the results
Two methods were used to evaluate the auricular oedema: • a) Weight of a given portion of auricular pinna. • b) Measurement of the auricular thickness using precision spring callipers.
The degree of oedema was calculated by subtracting the weight or the thickness of the untreated ear from that of the contralateral treated ear. To determine the degree of remission of the oedema, the difference (weight or thickness) of the groups treated with TPA+macrolides was then compared with the groups treated with TPA alone.
The activity of the macrolide compounds was measured by using the modified method of Zunic et al. (1998): MDL (Lysyl) GDP, a non-toxic muramyl dipeptide derivative inhibits cytokine production by activated macrophages and protects mice from phorbol ester- and oxazolone-induced inflammation (J. Invest. Dermatol., 111(1), 77-82).
The data relating to erythromycin and azythromycin concern the treatment with a single dose of 500 μg/ear.

[2] = test system: Enterococcus faecalis ATCC 29212; test: Antibiotic activity, MIC or activity at 128 μg/ml; type: cell-based; conditions: Enter. faecalis ATCC 29212; for MIC: Enterococcus faecalis, ATCC29212
Procedure: (§1) The MIC values were determined in liquid earth according to the method described in “Manual of Clinical Microbiology, 7th edition (1999), American Society for Microbiology”.

[3] = test system: Staphylococcus aureus ATCC 29213; test: Antibiotic activity, MIC in liquid medium; type: cell-based; conditions: ATCC29213, Staph. aureus ATCC 29213
Procedure: as §1

[4] = test system: Streptococcus pneumoniae ATCC 49619; test: Antibiotic activity, MIC in liquid medium; type: cell-based; conditions: ATCC49619, Strep. pneum ATTC 49619
Procedure: as §1

[5] = test system: Streptococcus pyogenes ATCC 19615; test: Antibiotic activity at 128 μg/ml; type: cell-based; conditions: Strep. pyogenes ATTC 19615; 128 μg/ml
Procedure: as §1

[6] = test system: Staphylococcus aureus ATCC 6538; test: Antibiotic activity at 128 μg/ml; type: cell-based; conditions: Staph. aureus ATCC 6538; 128 μg/ml
Procedure: as §1

[7] = test system: LPS-induced accumulation of neutrophils in rat lungs; test: LPS-induced pulmonary inflammation in rats (neutrophil count in bronchial fluid wash); type: in vivo; conditions: Rattus norvegicus, Neutrophil, single oral dose 100, 40, 10 μmol/kg one hour before LPS 0.4 mg/kg endotracheal, 20 h, erythromycin: single oral dose 130 μmol/kg, read-out: ED50 (dose inducing 50% reduction in neutrophil count in bronchial fluid wash)
Procedure: B) LPS-Induced Pulmonary Inflammation in Rats • Administration
The rats received endotracheally, via the peroral route, a single dose of 0.4 mg/kg of LPS (E. coli, serotype 026:6). The tracheal instillation was performed under anaesthesia with halothane and, 20 hours after the endotracheal administration of LPS/saline solution, the animals were sacrificed by means of an overdose of urethane. • Washing
The lungs were washed with 4 aliquots of 5 ml each of saline solution with 10 IU ml^−1 heparin. The cell suspension was concentrated by low-speed centrifugation and the cell pellet was suspended. • Counting of the Cells and Differentiation.
The total cell count was performed in a haemocytometer.
The differential counting was performed on cytospin preparations stained with May-Grunwald-Giemsa (Tamaoki J., Tagaya E., Yamawaki I., Sakai, Nagai A., Konno K, 1995. Effect of erythromycin on endotoxin-induced microvascular leakage in the rat trachea and lungs. Am. J. Respir. Crit. Care Med., 151, 1582-8). The rats received the test compounds orally in doses of 100, 40 and 10 μmol/kg as a single administration dose orally one hour before exposure to LPS.
ED50 value is the dose that induced a 50% reduction in the neutrophil count in the bronchial fluid wash.
The data relating to erythromycin refers to an oral treatment with a single dose of 130 μmol/kg.

[8] = method a: weight of a given portion of auricular pinna
[9] = method b: auricular thickness by precision spring callipers

| MIC [2] [µg/mL] | MIC [3] [µg/mL] | MIC [4] [µg/mL] | Structure (SMILES) | inhibition in vivo at 500 µg/ear [1, 8] [%] | Antibiotic activity at 128 μg/ml [2] | Antibiotic activity at 128 μg/ml [5] | Antibiotic activity at 128 μg/ml [6] | ED50 [7] [µmol/kg] | inhibition in vivo at 500 µg/ear [1, 9] [%] |
| --- | --- | --- | --- | --- | --- | --- | --- | --- | --- |
|  |  |  | CC[C@H]1OC(=O)[C@H](C)[C@@H](O[C@H]2C[C@@](C)(OC)[C@@H](O)[C@H](C)O2)[C@H](C)[C@@H](O[C@@H]2O[C@H](C)C[C@H](N(C)C)[C@H]2O)[C@](C)(O)C[C@@H](C)CN(C)[C@H](C)[C@@H](O)[C@]1(C)O [Azythromycin, reference compound] | 40 |  |  |  |  |  |
| > 128 | > 128 | > 128 | CC[C@H]1OC(=O)[C@H](C)[C@@H](O)[C@H](C)[C@@H](O[C@@H]2O[C@H](C)C[C@H](N(C)C)[C@H]2O)C(C)(O)C[C@@H](C)[C@H](O)[C@H](C)[C@@H](O)[C@]1(C)O (stereo partly shown) [Compound 2] | 36.2 | not active | not active | not active |  |  |
| > 128 | > 128 | > 128 | CC[C@H]1OC(=O)[C@H](C)[C@@H](O)[C@H](C)[C@@H](O[C@@H]2O[C@H](C)C[C@H]([N+](C)(C)[O-])[C@H]2O)C(C)(O)C[C@@H](C)[C@H](O)[C@H](C)[C@@H](O)[C@]1(C)O (stereo partly shown) [Compound 3] | 65.2 | not active | not active | not active |  |  |
|  |  |  | CC[C@H]1OC(=O)[C@H](C)[C@@H](O)[C@H](C)[C@@H](O[C@@H]2O[C@H](C)CC(N(C)CCCNCc3nccs3)[C@H]2O)C(C)(O)C[C@@H](C)[C@H](O)[C@H](C)[C@@H](O)[C@]1(C)O (stereo partly shown) [Compound 5] | 53.4 |  |  |  |  |  |
|  |  |  | CC[C@H]1OC(=O)[C@H](C)[C@@H](O)[C@H](C)[C@@H](O[C@@H]2O[C@H](C)CC(N(C)C(=O)CNCCN(C)C)[C@H]2O)C(C)(O)C[C@@H](C)[C@H](O)[C@H](C)[C@@H](O)[C@]1(C)O (stereo partly shown) [Compound 6] | 30.9 |  |  |  |  |  |
|  |  |  | CC[C@H]1OC(=O)[C@H](C)[C@@H](O)[C@H](C)[C@@H](O[C@@H]2O[C@H](C)C[C@H](N(C)CCNCCNCc3nccs3)[C@H]2O)[C@@](C)(O)C[C@@H](C)[C@H](O)[C@H](C)[C@@H](O)[C@]1(C)O [Compound 7] | 45 |  |  |  |  |  |
|  |  |  | CC[C@H]1OC(=O)[C@H](C)[C@@H](O)[C@H](C)[C@@H](O[C@@H]2O[C@H](C)C=C[C@H]2O)C(C)(O)C[C@@H](C)[C@H](O)[C@H](C)[C@@H](O)[C@]1(C)O (stereo partly shown) [Compound 9] | 32.4 |  |  |  |  |  |
| > 128 | > 128 | > 128 | CC[C@H]1OC(=O)[C@H](C)[C@@H](O)[C@H](C)[C@@H](O[C@@H]2O[C@H](C)C[C@H](N(C)C)[C@H]2O)C(C)(O)C[C@@H](C)/C(=N\O)[C@H](C)[C@@H](O)[C@]1(C)O (stereo partly shown) [Compound 11] | 70.2 | not active | not active | not active |  |  |
| > 128 | > 128 | > 128 | CC[C@H]1OC(=O)[C@H](C)[C@@H](O)[C@H](C)[C@@H](O[C@@H]2O[C@H](C)C[C@H]([N+](C)(C)[O-])[C@H]2O)C(C)(O)C[C@@H](C)/C(=N\O)[C@H](C)[C@@H](O)[C@]1(C)O (stereo partly shown) [Compound 12] | 87.4 | not active | not active | not active |  |  |
| > 128 | > 128 | > 128 | CC[C@H]1OC(=O)[C@H](C)[C@@H](O)[C@H](C)[C@@H](O[C@@H]2O[C@H](C)C=C[C@H]2O)C(C)(O)C[C@@H](C)/C(=N\O)[C@H](C)[C@@H](O)[C@]1(C)O (stereo partly shown) [Compound 13] | 77.4 | not active | not active | not active |  |  |
|  |  |  | CC[C@H]1OC(=O)[C@H](C)[C@@H](O)[C@H](C)[C@@H](O[C@@H]2O[C@H](C)CC[C@H]2O)C(C)(O)C[C@@H](C)/C(=N\O)[C@H](C)[C@@H](O)[C@]1(C)O (stereo partly shown) [Compound 14] | 71.5 |  |  |  | 15 |  |
|  |  |  | CC[C@H]1OC(=O)[C@H](C)[C@@H](O)[C@H](C)[C@@H](O[C@@H]2O[C@H](C)C[C@H](N(C)C)[C@H]2O)C(C)(O)C[C@@H](C)/C(=N\OC)[C@H](C)[C@@H](O)[C@]1(C)O (stereo partly shown) [Compound 15] | 31.6 | not active | not active | not active |  |  |
|  |  |  | CC[C@H]1OC(=O)[C@H](C)[C@@H](O)[C@H](C)[C@@H](O[C@@H]2O[C@H](C)C[C@H]([N+](C)(C)[O-])[C@H]2O)C(C)(O)C[C@@H](C)/C(=N\OC)[C@H](C)[C@@H](O)[C@]1(C)O (stereo partly shown) [Compound 16] | 72.3 |  |  |  |  |  |
|  |  |  | CC[C@H]1OC(=O)[C@H](C)[C@@H](O)[C@H](C)[C@@H](O[C@@H]2O[C@H](C)C=C[C@H]2O)C(C)(O)C[C@@H](C)/C(=N\OC)[C@H](C)[C@@H](O)[C@]1(C)O (stereo partly shown) [Compound 17] | 41.9 |  |  |  |  |  |
| > 128 | > 128 | > 128 | CC[C@H]1OC(=O)[C@H](C)[C@@H](O)[C@H](C)[C@H](O[C@@H]2O[C@H](C)CC([N+](C)(C)[O-])[C@@H]2O)[C@](C)(O)C[C@@H](C)/C(=N\OCCNCCNCc2nccs2)[C@H](C)[C@H](O)[C@]1(C)O (stereo partly shown) [Compound 20] |  |  |  |  |  | 49.9 |
| > 128 | > 128 | > 128 | CC[C@H]1OC(=O)[C@H](C)[C@@H](O)[C@H](C)[C@H](O[C@@H]2O[C@H](C)CC[C@@H]2O)[C@](C)(O)C[C@@H](C)/C(=N\OCCNCCNCc2nccs2)[C@H](C)[C@H](O)[C@]1(C)O [Compound 21] |  | not active | not active | not active |  | 74.1 |
|  |  |  | CC[C@H]1OC(=O)[C@H](C)[C@@H](O)[C@H](C)[C@@H](O[C@@H]2O[C@H](C)CC[C@H]2O)C(C)(O)C[C@@H](C)/C(=N\OCCNCCNCc2ccco2)[C@H](C)[C@@H](O)[C@]1(C)O (stereo partly shown) [Compound 26] |  | not active | not active | not active |  |  |
| > 128 | > 128 | > 128 | CC[C@H]1OC(=O)[C@H](C)[C@@H](O)[C@H](C)[C@@H](O[C@@H]2O[C@H](C)C[C@H](N(C)C)[C@H]2O)C(C)(OC)C[C@@H](C)[C@H](O)[C@H](C)[C@@H](O)[C@]1(C)O (stereo partly shown) [Compound 27] |  |  |  |  |  |  |
|  |  |  | CC[C@H]1OC(=O)[C@H](C)[C@@H](O)[C@H](C)[C@H](OC2O[C@H](C)C[C@H](N(C)C(C)=O)[C@@H]2O)C(C)(OC)C[C@H](C)/C(=N\O)[C@H](C)[C@@H](O)[C@]1(C)O (stereo partly shown) [Compound 29] | 44.5 |  |  |  |  |  |
|  |  |  | CC[C@H]1OC(=O)[C@H](C)[C@@H](O)[C@H](C)[C@H](OC2O[C@H](C)C[C@H](N(C)CCCOCc3cccnc3)[C@@H]2O)C(C)(O)C[C@H](C)[C@H](O)[C@H](C)[C@@H](O)[C@]1(C)O (stereo partly shown) [Compound 30] | 39.8 |  |  |  |  |  |
